# Measured values as given in ChEMBL document CHEMBL1155792, “QSAR prediction of inhibition of aldose reductase for flavonoids” (Bioorg Med Chem, 2008).
# Target: Aldo-keto reductase family 1 member B1 (Rattus norvegicus, UniProt P07943)
# Experiment: Inhibition of rat lens aldose reductase
row,IC50,SMILES
1,0.24 µM,COc1c(-c2ccc(O)c(O)c2)oc2c(OC)c(O)cc(O)c2c1=O
2,1000 µM,COc1cc(O)cc2oc(-c3ccccc3)cc(=O)c12
3,18.6 µM,COc1cc(-c2cc(=O)c3c(OC)c(OC)c(OC)c(OC)c3o2)ccc1O
4,0.0324 µM,COc1c(OC)c(OC)c2c(=O)cc(-c3ccc(O)c(O)c3)oc2c1OC
5,1.2 µM,COc1cc(-c2cc(=O)c3c(O)c(O)c(O)c(OC)c3o2)ccc1O
6,0.229 µM,COc1cc(O)c2c(=O)cc(-c3ccc(O)c(O)c3)oc2c1O
7,288 µM,COc1c(O)c(OC)c2c(=O)cc(-c3ccccc3)oc2c1OC
8,1.66 µM,O=c1cc(-c2ccccc2O)oc2cc(O)ccc12
9,8.91 µM,COc1cc2oc(-c3ccc(O)c(O)c3)c(C(C)=O)c(=O)c2c(OC)c1OC
10,13.2 µM,COc1cc(-c2cc(=O)c3c(O)c(OC)c(OC)cc3o2)ccc1OC1O[C@H](CO)[C@@H](O)[C@H](O)[C@H]1O (some centres not stated)
11,0.407 µM,COc1c(O)c(OC)c2oc(-c3ccc(O)cc3)cc(=O)c2c1O
12,0.302 µM,COc1cc2oc(-c3ccc(O)c(O)c3)cc(=O)c2c(O)c1O
13,0.17 µM,COc1cc(OC)c2c(=O)c(OC)c(-c3ccc(O)c(O)c3)oc2c1OC
14,0.0339 µM,COc1c(O)c(Cc2ccccc2)c2oc(-c3ccc(O)c(O)c3)cc(=O)c2c1O
15,0.035 µM,COc1c(O)c(OC)c2c(=O)cc(-c3ccc(O)c(O)c3)oc2c1OC
16,0.282 µM,COc1c(O)cc(O)c2c(=O)cc(-c3ccc(O)c(O)c3)oc12
17,0.282 µM,COc1c(-c2ccc(O)c(O)c2)oc2c(OC)c(O)cc(OC)c2c1=O
18,0.302 µM,COc1c(OC(C)=O)c(OC(C)=O)c(OC(C)=O)c2c(=O)cc(-c3ccc(OC(C)=O)c(OC(C)=O)c3)oc12
19,18.2 µM,COc1cc(-c2cc(=O)c3c(O)c(OC)c(O)c(OC)c3o2)ccc1OC1O[C@H](CO)[C@@H](O)[C@H](O)[C@H]1O (some centres not stated)

row,IC50,SMILES
1,20.9 µM,COc1cc(-c2cc(=O)c3c(O)c(OC)c(OC4O[C@H](CO)[C@@H](O)[C@H](O)[C@H]4O)c(OC)c3o2)ccc1O (some centres not stated)
2,0.269 µM,COc1cc2oc(-c3ccc(O)c(O)c3)c(OC)c(=O)c2c(OC)c1OC
3,316 µM,COc1cc(O)c2c(=O)cc(-c3cc(O)c(OC)cc3OC)oc2c1
4,6.31 µM,COc1cc(-c2cc(=O)c3c(OC)c(O)c(OC)c(OC)c3o2)ccc1O
5,0.302 µM,COc1cc2oc(-c3ccc(O)c(O)c3)c(OC)c(=O)c2c(OC)c1O
6,8.13 µM,COc1c(O)c(O)c(O)c2c(=O)cc(-c3ccccc3)oc12
7,8.39 µM,COc1c(O)c(O)c2c(=O)cc(-c3ccccc3)oc2c1OC
8,110 µM,COc1cc(-c2cc(=O)c3c(O)c(O)c(OC)c(OC)c3o2)ccc1O
9,0.851 µM,COc1c(O)c(O)c2c(=O)cc(-c3ccc(O)cc3)oc2c1OC
10,0.0575 µM,COc1c(-c2ccc(O)c(O)c2)oc2cc(O)c(O)c(O)c2c1=O
11,0.0646 µM,COc1c(O)c(O)c2c(=O)cc(-c3ccc(O)c(O)c3)oc2c1OC
12,0.0741 µM,COc1c(O)cc(OC)c2c(=O)cc(-c3ccc(O)c(O)c3)oc12
13,0.12 µM,COc1c(O)c(O)c(O)c2c(=O)cc(-c3ccc(O)c(O)c3)oc12
14,0.141 µM,COc1cc2oc(-c3ccc(O)c(O)c3)cc(=O)c2c(OC)c1O
15,0.162 µM,COc1cc(OC)c2c(=O)cc(-c3ccc(O)c(O)c3)oc2c1O
16,5.25 µM,O=c1cc(-c2ccc(O)cc2)oc2ccc(O)cc12
17,0.813 µM,COc1cc2oc(-c3ccc(O)c(O)c3)c(OC)c(=O)c2c(O)c1O
18,29.5 µM,COc1ccc(-c2cc(=O)c3c(O)c(OC)c(O)c(OC)c3o2)cc1OC
19,16.2 µM,COc1cc2oc(-c3ccc(OC4O[C@H](CO)[C@@H](O)[C@H](O)[C@H]4O)cc3)cc(=O)c2c(O)c1OC (some centres not stated)

row,IC50,SMILES
1,8.2 µM,COc1cc2oc(-c3ccc(OC4O[C@H](CO)[C@@H](O)[C@H](O)[C@H]4O)c(O)c3)cc(=O)c2c(O)c1OC (some centres not stated)
2,1.2 µM,COc1c(O)c(O)c(O)c2c(=O)cc(-c3ccc(O)cc3)oc12
3,1000 µM,COc1cc(O)c2c(=O)cc(-c3cc(OC)c(O)cc3OC)oc2c1
4,2.29 µM,O=c1cc(-c2ccc(O)cc2O)oc2cc(O)ccc12
5,0.0447 µM,COc1cc(OC)c2c(=O)cc(-c3ccc(O)c(O)c3)oc2c1OC
6,0.0912 µM,COc1cc2oc(-c3ccc(O)c(O)c3)cc(=O)c2c(OC)c1OC
7,45.7 µM,COc1cc(-c2cc(=O)c3c(O)c(OC)c(OC)c(OC)c3o2)ccc1O
8,0.0776 µM,COc1cc(O)c2c(=O)cc(-c3ccc(O)c(O)c3)oc2c1OC
9,0.204 µM,O=c1cc(-c2ccc(O)c(O)c2)oc2cc(O)c(O)c(O)c12 [6-HYDROXYLUTEOLIN]
10,0.028 µM,COc1c(O)cc2oc(-c3ccc(O)c(O)c3)c(OC)c(=O)c2c1O [AXILLARIN]
11,0.348 µM,COc1cc2oc(-c3ccc(O)c(O)c3)c(OC)c(=O)c2c(O)c1OC [CHRYSOSPLENOL D]
12,6.76 µM,COc1cc(-c2cc(=O)c3c(O)c(OC)c(OC)cc3o2)ccc1O [CIRSILENEOL]
13,0.17 µM,COc1cc2oc(-c3ccc(O)c(O)c3)cc(=O)c2c(O)c1OC [CIRSILIOL]
14,1.41 µM,COc1cc2oc(-c3ccc(O)cc3)cc(=O)c2c(O)c1OC [CIRSIMARITIN]
15,7.24 µM,COc1ccc(-c2cc(=O)c3c(O)c(OC)c(O)c(OC)c3o2)cc1 [NEVADENSIN]
16,0.0389 µM,COc1c(OC)c(O)c2c(=O)cc(-c3ccc(O)c(O)c3)oc2c1OC [SIDERITIFLAVONE]
17,4.47 µM,COc1cc(-c2cc(=O)c3c(O)c(OC)c(O)c(OC)c3o2)ccc1O [SUDACHITIN]
18,0.537 µM,COc1c(OC)c(O)c2c(=O)cc(-c3ccc(O)cc3)oc2c1OC [XANTHOMICROL]

row,SMILES,IC50
1,C[C@H]1OC(Oc2c(-c3ccc(O)c(O)c3)oc3cc(O)cc(O)c3c2=O)[C@@H](O)[C@@H](O)[C@@H]1O (some centres not stated),1.17 µM
